The values that follow come from article PMC6722883 (FEBS Open Bio, 2019).

The data set in a line: physchem. The conditions noted are these: buffer or solvent, pH 7.2.

`CC[C@H](C)[C@@H]1NC(=O)[C@@H]2CCCN2C(=O)[C@H](CO)NC(=O)[C@H](CCSC)NC(=O)[C@H](C)NC(=O)[C@H](CO)NC(=O)[C@@H]2CSSC[C@H](NC(=O)CN)C(=O)N[C@@H](CSSC[C@@H](C(N)=O)NC1=O)C(=O)N[C@@H](CO)C(=O)N[C@@H](Cc1cnc[nH]1)C(=O)N1CCC[C@H]1C(=O)N[C@@H](C(C)C)C(=O)N2` [TxID, α‐Conotoxin TxID] had a fraction remaining at 4 h of around 50%.
